Values quoted from earlier work, collected in US20020055536A1, “System and method for structure-based drug design that includes accurate prediction of binding free energy” (priority 1996, published 2002).

Assays:
HIV-1 protease = molecular target: T1, HIV-1 protease (Human immunodeficiency virus type 1 group M subtype B, UniProt P04585)
T1 construct: The following HIV-1 protease ligands were tested by the method of the present invention

[1] = molecular target: purine nucleoside phosphorylase; conditions: for IC50: 1 mM phosphate, Ki or IC50 not distinguished; for Phosphate sensitivity: change of binding constant upon increase of phosphate to 50 mM

| Compound | Ki (HIV-1 protease) [µM] | IC50 [1] [µM] | Phosphate sensitivity [1] |
| --- | --- | --- | --- |
| C=CC(C)(C)C(=O)c1cnc(C(Cc2ccccc2)CC(O)C(Cc2ccccc2)NC(=O)OC(C)(C)C)[nH]1 (centres unmarked) [A Boc CMe2CHCH2] | 0.27 |  |  |
| CCC(=O)c1cnc(C(Cc2ccccc2)CC(O)C(Cc2ccccc2)NC(=O)OC(C)(C)C)[nH]1 (centres unmarked) [A Boc Et] | 0.092 |  |  |
| CC(C)(C)OC(=O)NC(Cc1ccccc1)C(O)CC(Cc1ccccc1)c1ncc(C=O)[nH]1 (centres unmarked) [A Boc H] | 3.5 |  |  |
| CC(=O)c1cnc(C(Cc2ccccc2)CC(O)C(Cc2ccccc2)NC(=O)OC(C)(C)C)[nH]1 (centres unmarked) [A Boc Me] | 0.37 |  |  |
| CC(C)C(=O)c1cnc(C(Cc2ccccc2)CC(O)C(Cc2ccccc2)NC(=O)OC(C)(C)C)[nH]1 (centres unmarked) [A Boc i-Pr] | 0.083 |  |  |
| CCCC(=O)c1cnc(C(Cc2ccccc2)CC(O)C(Cc2ccccc2)NC(=O)OC(C)(C)C)[nH]1 (centres unmarked) [A Boc n-Pr] | 0.15 |  |  |
| CC(O)c1cnc(C(Cc2ccccc2)CC(O)C(Cc2ccccc2)NC(=O)OC(C)(C)C)[nH]1 [B Boc Me(R)] | 13.3 |  |  |
| CC(O)c1cnc(C(Cc2ccccc2)CC(O)C(Cc2ccccc2)NC(=O)OC(C)(C)C)[nH]1 [B Boc Me(S)] | 13.3 |  |  |
| CC(C)C(O)c1cnc(C(Cc2ccccc2)CC(O)C(Cc2ccccc2)NC(=O)OC(C)(C)C)[nH]1 [B Boc i-Pr(R)] | 2.7 |  |  |
| CC(C)C(O)c1cnc(C(Cc2ccccc2)CC(O)C(Cc2ccccc2)NC(=O)OC(C)(C)C)[nH]1 [B Boc iPr(S)] | 2.7 |  |  |
| CC(C)C(NC(=O)C(Cc1ccccc1)CC(O)C(Cc1ccccc1)NC(=O)OC(C)(C)C)c1ncc[nH]1 (centres unmarked) [D CH] | 0.018 |  |  |
| CC(C)C(NC(=O)C(Cc1ccccc1)CC(O)C(Cc1ccccc1)NC(=O)OC(C)(C)C)c1nnc[nH]1 (centres unmarked) [D N] | 0.0042 |  |  |
| Nc1nc2c(ncn2[C@@H]2O[C@H](COP(=O)(O)OP(=O)(O)O)[C@@H](O)[C@H]2O)c(=O)[nH]1 [GDP] |  | 360 | low (those whose binding constant changes by a factor of 15 or less upon increase of the concentration of phosphate to 50 mM) |
| Nc1nc2c(ncn2[C@@H]2O[C@H](COP(=O)(O)O)[C@@H](O)[C@H]2O)c(=O)[nH]1 [GMP] |  | 530 | low (those whose binding constant changes by a factor of 15 or less upon increase of the concentration of phosphate to 50 mM) |
| Nc1nc2c(ncn2[C@@H]2O[C@H](COP(=O)(O)OP(=O)(O)OP(=O)(O)O)[C@@H](O)[C@H]2O)c(=O)[nH]1 [GTP] |  | 490 | low (those whose binding constant changes by a factor of 15 or less upon increase of the concentration of phosphate to 50 mM) |
| Nc1nc(O)c2ncn(COCCOP(=O)(O)OP(=O)(O)O)c2n1 [acyclovirDP] |  |  | high (The highly sensitive molecules are affected in some instances by a factor of 140) |
| Nc1nc2c(ncn2COCCOP(=O)(O)O)c(=O)[nH]1 [acyclovirMP] |  | 6.6 | low (those whose binding constant changes by a factor of 15 or less upon increase of the concentration of phosphate to 50 mM) |
| Nc1nc2c(ncn2COCCOP(=O)(O)OP(=O)(O)OP(=O)(O)O)c(=O)[nH]1 [acyclovirTP] |  | 0.31 | high (The highly sensitive molecules are affected in some instances by a factor of 140) |
| Nc1nc2c(ncn2COCCO)c(=O)[nH]1 [acyclovir] |  | 200 | low (those whose binding constant changes by a factor of 15 or less upon increase of the concentration of phosphate to 50 mM) |
| Nc1nc2c(ncn2[C@H]2C[C@H](O)[C@@H](COP(=O)(O)O)O2)c(=O)[nH]1 [dGMP] |  | 300 | low (those whose binding constant changes by a factor of 15 or less upon increase of the concentration of phosphate to 50 mM) |
| Nc1nc2c(ncn2[C@H]2C[C@H](O)[C@@H](COP(=O)(O)OP(=O)(O)OP(=O)(O)O)O2)c(=O)[nH]1 [dGTP] |  | 32 | high (The highly sensitive molecules are affected in some instances by a factor of 140) |
